We go through two compounds from patent US20150038435A1, “N-TERMINALLY MODIFIED OLIGOPEPTIDES AND USES THEREOF” (Novo Nordisk A/S, priority 2012, published 2015).

Structures are written as SMILES. Where “and” joins values, the source holds several entries; their conditions need not be identical. Equal values may be shown once. Non-standard residues stand in square brackets, D forms with d. Residues, ends and D or L forms follow the SMILES beside them. *: point of attachment. Lauroyl = CCCCCCCCCCCC(=O)*

Type in all cases: biochemical
The target in assay [1] is Chymotrypsin. Briefly: Inhibition of insulin degradation, HPLC assay (Example 201). As to conditions: for Ki: substrate A14E, B25H, B29K(N(eps)Octadecanedioyl-γGlu-OEG-OEG), desB30 human insulin. The method, then:
Degradation using duodenum lumen enzymes (prepared by filtration of duodenum lumen content) from SPD rats.
Each HPLC vial contained Dulbecco's phosphate buffer saline (DPBS, Invitrogen catalogue #14190-094), A14E, B25H, B29K(N(eps)Octadecanedioyl-γGlu-OEG-OEG), desB30 human insulin, N-terminally acylated peptide or oligopeptide of the invention and enzyme (chymotrypsin, trypsin, elastase or duodenum lumen enzymes).
The assay was performed in an HPLC autosampler equilibrated at 37° C., at specified time points, aliquots were injected directly onto an HPLC column and the amount of the intact A14E, B25H, B29K(N(eps)Octadecanedioyl-γGlu-OEG-OEG), desB30 human insulin was determined. Degradation half life was determined by exponential fitting of the data (for example, single exponential decay, 2 parameters, Sigma Plot version 11, Systat Software) and normalized to half time determined for the reference insulins, or human insulin in each assay. […] This was done by plotting the half life achieved with different concentrations of the N-terminally acylated peptide or oligopeptides of the invention as a function of their concentrations and fitting the experimental results using, for example, sigmoidal logistic regression (2 parameters, Sigma Plot v 11). Inhibition constants for the interaction between the N-terminally acylated peptide or oligopeptides of the invention and proteolytic enzymes were also obtained by performing the assay described above with varying concentrations of the inhibitor and substrate and analyzing the results, for example, by double reciprocal transformation as known to the person skilled in the art and described for example in Hubalek, F. et al., J. Med. Chem. 47, 1760-1766 (2004). Other algorithms known to the person skilled in the art may also be used to determine inhibition constants from the results.

Assay [2] has as its target Chymotrypsin. Briefly: Inhibition of enzymatic degradation of a chromogenic substrate (Example 202). As to conditions: substrate N-succinyl-Ala-Ala-Pro-Phe-p-Nitroanilide. The text has this:
The use of chromogenic substrates to monitor activity of proteolytic enzymes is known in the field (for example DelMar, E. G., et al., Anal. Biochem., 99, 316-320, (1979)). For example, N-succinyl-Ala-Ala-Pro-Phe-p-Nitroanilide is commonly used substrate for measuring chymotrypsin activity. Enzymatic cleavage of 4-nitroanilide substrates yields 4-nitroaniline (yellow color under alkaline conditions).
An assay following the increase in absorbance at 395 nm as a function of time was established in 96 well format using Varioskan Flash Multimode Meter (Thermo Scientific). Each well contained 70 μl of Dulbecco's phosphate buffer saline (Invitrogen catalogue #14190-094), 10 μl of N-succinyl-Ala-Ala-Pro-Phe-p-Nitroanilide (Sigma cat# S 7388) in DMSO (different concentrations were used in order to obtain the inhibition constant), 10 μl of N-terminally acylated peptide or oligopeptide of the invention in varying concentration and 10 μl of a stock solution of an enzyme (chymotrypsin, trypsin, elastase, etc.). The incubations were performed at 37° C. Absorbance at 395 nm was measured immediately after addition of the enzyme to the 96 well plate and also every minute for the next 80 minutes. The concentration of the enzyme was optimized to allow determination of slopes for the time course of initial absorbance increase with and without added inhibitors. The slopes were determined by linear regression of the linear part of the fluorescence trace (for example, the first 10 min of the reaction). Each assay was performed in duplicate and average of the two traces was included in the calculations. The relative effect of N-terminally acylated peptide or oligopeptides of the invention on enzymatic degradation of N-succinyl-Ala-Ala-Pro-Phe-p-Nitroanilide was obtained by comparison of the slopes achieved by the same concentration of the N-terminally acylated peptide or oligopeptides. […] This was done by plotting the slopes achieved with different concentrations of the N-terminally acylated peptide or oligopeptides of the invention as a function of their concentrations and fitting the experimental results using, for example, sigmoidal logistic regression (2 parameters, Sigma Plot v 11). Inhibition constants for the interaction between the N-terminally acylated peptide or oligopeptides of the invention and proteolytic enzymes were also obtained by performing the assay described above with varying concentrations of the inhibitor and substrate and analyzing the results, for example, by double reciprocal transformation as known to the person skilled in the art and described for example in Hubalek, F. et al., J. Med. Chem. 47, 1760-1766 (2004).

Assay [3] relates to GI juice. Briefly: Inhibition of GI juice degradation of insulin analogue and GLP-1 analogue. As to conditions: compound 1 mM, rat GI juice. The method, then:
96 well plates were coated by incubating with 0.4% Bovine serum albumin (BSA) solution for minimum of 60 min. […] 1% TFA), 30 μl of a substrate (100 μM insulin analogue or GLP-1 analogue in buffer) and 30 μl of N-terminally acylated peptide or oligopeptide of the invention (10 mM) were added. The plates were pre-incubated (before adding GI juice) for 60 min at 37° C. After addition of 30 μl of GI juice (10-times diluted in buffer), the plates were incubated for 60 min/37° C. on shaker. […] 1% TFA and spun down in plates (4500 rpm for 10 min). Samples were diluted 5 times with the buffer prior to LC-MS analysis. Standard samples (0.1, 0.5, 1.0, 5.0, 10.0 μM) were prepared and treated as the samples. Standard curve was analysed both at the beginning and the end of the sequence. Two replicates of each tested conditions were included. Ion suppression was assessed by analyzing a standard at 1 μM and at 10 μM with 1 mM inhibitor present. Intact insulin or GLP-1 analoues were determined at each sample. The results were plotted against the incubation time. […] The half-lives were expressed relative to the half-live of the insulin or GLP-1 analogue without inhibitor present by dividing the half-lives obtained in the presence of inhibitor with those obtained in the absence of inhibitors. GI juice was prepared from male Sprague Dawley rats (200-250 g) by excising approximately 20 cm piece of mid jejunum and rinsing the inside with 2.5 ml 0.9% sodium chloride solution. The sodium chloride solution was collected in a centrifuge tube, pooled from all rats (20) and centrifuged at 4500 rpm./10 min/4° C. The supernatant was aliquoted in tubes and stored at −80° C.
A14E, B25H, B29K(N(eps)Octadecanedioyl-γGlu-OEG-OEG), desB30 human insulin and N-epsilon26-[2-(2-{2-[2-(2-{2-[(S)-4-Carboxy-4-(17-carboxyheptadecanoylamino)-butyrylamino]ethoxy}ethoxy)acetylamino]ethoxy}ethoxy)acetyl][Aib8,Arg34]GLP-1-(7-37) were used as standards in this assay.
For experiments repeated more than two times, standard deviation is given

`CCCCCCCCCCCC(=O)N[C@@H](C)C(=O)N[C@@H](C)C(=O)N1CCC[C@H]1C(=O)N[C@@H](Cc1ccccc1)C(=O)O` [Example 34, N-dodecanoyl-Ala-Ala-Pro-Phe-OH] (Lauroyl-AAPF-OH): the “kind of enzyme inhibition” value in assay [1] (chymotrypsin, insulin analogue as substrate) is “mixed inhibition”; in assay [2] (chymotrypsin), “competitive inhibition”. The Ki was roughly 15 µM in assay [1] (chymotrypsin); 15 µM in assay [1]; ~130 µM and ~150 µM in assay [2] (chymotrypsin); 130 µM in assay [2].

With `CCCCCCCCCCCC(=O)N[C@H](C)C(=O)N[C@H](C)C(=O)N1CCC[C@@H]1C(=O)N[C@H](Cc1ccccc1)C(=O)O` [Example 1, N-dodecanoyl-DAla-DAla-DPro-DPhe-OH] (Lauroyl-[dA][dA][dP][dF]-OH), the “Half Life fold increase (over solution w/o N-terminally acylated (oligo)peptide)” value in assay [3] is reported as 5.0. Also, the “Half Life of insulin analogue” value in assay [3] (37° C.) is 13.0 min.
